Assay: xn = mol fraction of the nth substance listed
Conditions: 100 kPa

Nc1ccccc1 + CCCC[n+]1ccn(C)c1.O=S(=O)([N-]S(=O)(=O)C(F)(F)F)C(F)(F)F
viscosity [mPa·s]
Conditions | 288.15 K | 293.15 K | 298.15 K | 303.15 K | 308.15 K | 313.15 K | 318.15 K | 323.15 K | 328.15 K | 333.15 K
x1 = 0.1 | 66.3 | 52.2 | 42.1 | 34.3 | 28.6 | 23.9 | 20.44 | 17.56 | 15.22 | 13.34
x1 = 0.2 | 55.9 | 44.1 | 35.9 | 29.3 | 24.5 | 20.59 | 17.66 | 15.22 | 13.24 | 11.63
x1 = 0.3029 | 46.5 | 36.8 | 30.1 | 24.7 | 20.77 | 17.48 | 15.05 | 13.02 | 11.36 | 10.01
x1 = 0.4013 | 38.5 | 30.6 | 25.1 | 20.73 | 17.48 | 14.76 | 12.76 | 11.06 | 9.68 | 8.56
x1 = 0.5024 | 31.1 | 24.8 | 20.42 | 16.98 | 14.38 | 12.17 | 10.57 | 9.19 | 8.08 | 7.16
x1 = 0.6002 | 24.6 | 19.71 | 16.28 | 13.64 | 11.58 | 9.84 | 8.59 | 7.5 | 6.61 | 5.88
x1 = 0.7 | 18.38 | 14.86 | 12.4 | 10.47 | 8.92 | 7.61 | 6.68 | 5.86 | 5.19 | 4.64
x1 = 0.8002 | 13.46 | 10.93 | 9.22 | 7.8 | 6.71 | 5.77 | 5.09 | 4.5 | 4 | 3.59
x1 = 0.9 | 8.74 | 7.19 | 6.1 | 5.2 | 4.5 | 3.9 | 3.46 | 3.08 | 2.76 | 2.48
x1 = 1 | 5.32 | 4.41 | 3.74 | 3.2 | 2.78 | 2.45 | 2.159 | 1.927 | 1.738 | 1.577

Source: the CheMixHub ionic liquid set
